Key:
FGFR4 = FGFR4 (Homo sapiens (Human), UniProt P22455); experiment: FGFR Enzymatic Assay (FRET peptide phosphorylation), FGFR4; type: biochemical
Description: (§1) The inhibitor potency of the exemplified compounds was measured in an enzyme assay that measures peptide phosphorylation using FRET measurements to detect product formation. Inhibitors were serially diluted in DMSO and a volume of 0.5 μL was transferred to the wells of a 384-well plate.
The enzymes were purchased from Millipore or Invitrogen.
(§2) GraphPad prism3 was used to analyze the data.

FGFR3 enzyme = experiment: FGFR Enzymatic Assay (FRET peptide phosphorylation), FGFR3; type: biochemical; conditions: IC50 ratio showing FGFR3 selectivity; Table 2A, pre-incubated for 4 hours
Description: as §1, §2

[1] = IC50 ratio showing FGFR4 selectivity, Table 2, pre-incubated for 4 hours
[2] = ratio of IC50 data showing FGFR4 selectivity, Table 4, pre-incubated for 5 to 10 minutes

Chain of FGFR4 (P22455 22-802): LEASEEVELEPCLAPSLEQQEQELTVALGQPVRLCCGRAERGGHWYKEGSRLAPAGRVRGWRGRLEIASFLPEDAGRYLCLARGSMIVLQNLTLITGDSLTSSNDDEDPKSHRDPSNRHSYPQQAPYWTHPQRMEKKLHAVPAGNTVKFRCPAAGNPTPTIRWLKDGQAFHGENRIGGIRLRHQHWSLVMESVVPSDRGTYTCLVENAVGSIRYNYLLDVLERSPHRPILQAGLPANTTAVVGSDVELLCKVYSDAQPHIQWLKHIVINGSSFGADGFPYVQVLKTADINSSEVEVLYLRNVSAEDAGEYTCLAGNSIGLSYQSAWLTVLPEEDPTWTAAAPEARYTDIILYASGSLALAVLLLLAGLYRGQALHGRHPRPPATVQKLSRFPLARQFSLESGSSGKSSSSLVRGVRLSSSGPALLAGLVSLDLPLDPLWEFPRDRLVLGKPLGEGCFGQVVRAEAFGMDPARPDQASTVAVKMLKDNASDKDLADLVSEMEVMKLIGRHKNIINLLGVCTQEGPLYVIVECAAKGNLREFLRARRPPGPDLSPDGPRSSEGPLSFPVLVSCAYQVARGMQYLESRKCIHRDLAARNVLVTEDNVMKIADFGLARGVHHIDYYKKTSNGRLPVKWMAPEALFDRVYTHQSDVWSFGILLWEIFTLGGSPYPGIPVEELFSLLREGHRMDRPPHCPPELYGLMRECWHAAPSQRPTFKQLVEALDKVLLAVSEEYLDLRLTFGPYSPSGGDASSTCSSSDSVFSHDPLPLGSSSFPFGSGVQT

Compound	FGFR1/FGFR4 (FGFR4; [1])	FGFR2/FGFR4 (FGFR4; [1])	FGFR3/FGFR4 (FGFR4; [1])	FGFR1/FGFR4 (FGFR4; [2])	FGFR2/FGFR4 (FGFR4; [2])	FGFR3/FGFR4 (FGFR4; [2])	FGFR1/FGFR3 (FGFR3 enzyme)	FGFR4/FGFR3 (FGFR3 enzyme)
COc1cc(OC)c(F)c(N2Cc3cnc(-c4cncc(N)c4)cc3C3(CC3)C2=O)c1F [Example 4, 6′-(5-aminopyridin-3-yl)-2′-(2,6-difluoro-3,5-dimethoxyphenyl)-1′H-spiro[cyclopropane-1,4′-[2,7]naphthyridin]-3′(2′H)-one]	>25	>10	>10	>10	>10	>5	>1	
COc1cc(OC)c(F)c(N2Cc3cnc(-c4cncc(F)c4)cc3C3(CC3)C2=O)c1F [Example 5, 2′-(2,6-difluoro-3,5-dimethoxyphenyl)-6′-(5-fluoropyridin-3-yl)-1′H-spiro[cyclopropane-1,4′-[2,7]naphthyridin]-3′(2′H)-one]	>10	>5	>1	>10	>5	>4	>3	
COc1cncc(-c2cc3c(cn2)CN(c2c(F)c(OC)cc(OC)c2F)C(=O)C32CC2)c1 [Example 10, 2′-(2,6-difluoro-3,5-dimethoxyphenyl)-6′-(5-methoxypyridin-3-yl)-1′H-spiro[cyclopropane-1,4′-[2,7]naphthyridin]-3′(2′H)-one]	>25	>25	>10	>25	>10	>10	>1	
COc1cc(OC)c(F)c(N2Cc3cnc(-c4cncc(Cl)c4)cc3C3(CC3)C2=O)c1F [Example 11, 6′-(5-chloropyridin-3-yl)-2′-(2,6-difluoro-3,5-dimethoxyphenyl)-1′H-spiro[cyclopropane-1,4′-[2,7]naphthyridin]-3′(2′H)-one]	>25	>25	>10	>50	>20	>25	>1	
COc1cc(OC)c(F)c(N2Cc3cnc(-c4cncc(-n5ccnc5)c4)cc3C3(CC3)C2=O)c1F [Example 12, 6′-(5-(1H-imidazol-1-yl)pyridin-3-yl)-2′-(2,6-difluoro-3,5-dimethoxyphenyl)-1′H-spiro[cyclopropane-1,4′-[2,7]naphthyridin]-3′(2′H)-one]	>50	>25	>10	>50	>25	>20	>3	
COc1cc(OC)c(F)c(N2Cc3cnc(-c4cncc(C(=O)N5CCOCC5)c4)cc3C3(CC3)C2=O)c1F [Example 13, 2′-(2,6-difluoro-3,5-dimethoxyphenyl)-6′-(5-(morpholine-4-carbonyl)pyridin-3-yl)-1′H-spiro[cyclopropane-1,4′-[2,7]naphthyridin]-3′(2′H)-one]	>50	>25	>10	>50	>20	>10	>3	
COc1cc(OC)c(F)c(N2Cc3cnc(-c4cncc(S(=O)(=O)N5CCOCC5)c4)cc3C3(CC3)C2=O)c1F [Example 14, 2′-(2,6-difluoro-3,5-dimethoxyphenyl)-6′-(5-(morpholinosulfonyl)pyridin-3-yl)-1′H-spiro[cyclopropane-1,4′-[2,7]naphthyridin]-3′(2′H)-one]	>50	>10	>1	>25	>5	>5	>5	
COc1cc(OC)c(F)c(N2Cc3cnc(-c4ccc(C5(C#N)CCC5)nc4)cc3N(Cc3nnc(C)o3)C2=O)c1F [Example 187, 1-(5-{3-(2,6-difluoro-3,5-dimethoxyphenyl)-1-[(5-methyl-1,3,4-oxadiazol-2-yl)methyl]-2-oxo-1,2,3,4-tetrahydropyrido[4,3-d]pyrimidin-7-yl}pyridin-2-yl)cyclobutanecarbonitrile]							>10	>10
COc1cc(OC)c(F)c(N2Cc3cnc(-c4ccc(C5(C#N)CCC5)nc4)cc3N(c3cnn(C)c3)C2=O)c1F [Example 188, 1-{5-[3-(2,6-difluoro-3,5-dimethoxyphenyl)-1-(1-methyl-1H-pyrazol-4-yl)-2-oxo-1,2,3,4-tetrahydropyrido[4,3-d]pyrimidin-7-yl]pyridin-2-yl}cyclobutanecarbonitrile]							>5	>5

Now from value to compound, other results behind:

FGFR1/FGFR4 (FGFR4; [1])	FGFR2/FGFR4 (FGFR4; [1])	FGFR3/FGFR4 (FGFR4; [1])	Compound	FGFR1/FGFR4 (FGFR4; [2])	FGFR2/FGFR4 (FGFR4; [2])	FGFR3/FGFR4 (FGFR4; [2])	FGFR1/FGFR3 (FGFR3 enzyme)	FGFR4/FGFR3 (FGFR3 enzyme)
>25	>25	>25	COc1cc(OC)c(F)c(N2Cc3cnc(-c4cc(N)ccc4C)cc3C3(CC3)C2=O)c1F [Example 1, 6′-(5-amino-2-methylphenyl)-2′-(2,6-difluoro-3,5-dimethoxyphenyl)-1^1H-spiro[cyclopropane-1,4′-[2,7]naphthyridin]-3′(2′H)-one]	>25	>25	>50		
>10	>10	>10	COc1cc(OC)c(F)c(N2Cc3cnc(-c4cc(N)c(F)cc4C)cc3C3(CC3)C2=O)c1F [Example 2, 6′-(5-amino-4-fluoro-2-methylphenyl)-2′-(2,6-difluoro-3,5-dimethoxyphenyl)-1′H-spiro[cyclopropane-1,4′-[2,7]naphthyridin]-3′(2′H)-one]	>10	>10	>10		
>25	>25	>10	COc1cc(OC)c(F)c(N2Cc3cnc(-c4cc(N)ccc4C#N)cc3C3(CC3)C2=O)c1F [Example 3, 4-amino-2-(2′-(2,6-difluoro-3,5-dimethoxyphenyl)-3′-oxo-2′,3′-dihydro-1′H-spiro[cyclopropane-1,4′-[2,7]naphthyridine]-6′-yl)benzonitrile]	>25	>25	>25		
>100	>100	>25	COc1cc(OC)c(F)c(N2Cc3cnc(-c4cncc(N5CCOCC5)c4)cc3C3(CC3)C2=O)c1F [Example 6, 2′-(2,6-difluoro-3,5-dimethoxyphenyl)-6′-(5-morpholinopyridin-3-yl)-1′H-spiro[cyclopropane-1,4′-[2,7]naphthyridin]-3′(2′H)-one]	>100	>100	>50	>3	
>50	>25	>25	COc1cc(OC)c(F)c(N2Cc3cnc(-c4cc(N)cnc4C)cc3C3(CC3)C2=O)c1F [Example 7, 6′-(5-amino-2-methylpyridin-3-yl)-2′-(2,6-difluoro-3,5-dimethoxyphenyl)-1′H-spiro[cyclopropane-1,4′-[2,7]naphthyridin]-3′(2′H)-one]	>25	>10	>10	>1	
>50	>10	>10	COc1cc(OC)c(F)c(N2Cc3cnc(-c4cncc(C#N)c4)cc3C3(CC3)C2=O)c1F [Example 8, 5-(2′-(2,6-difluoro-3,5-dimethoxyphenyl)-3′-oxo-2′,3′-dihydro-1′H-spiro[cyclopropane-1,4′-[2,7]naphthyridine]-6′-yl)nicotinonitrile]	>50	>10	>10	>5	
>10	>1	>1	COc1cc(OC)c(F)c(N2Cc3cnc(-c4cccnc4)cc3C3(CC3)C2=O)c1F [Example 9, 2′-(2,6-difluoro-3,5-dimethoxyphenyl)-6′-(pyridin-3-yl)-1′H-spiro[cyclopropane-1,4′-[2,7]naphthyridin]-3′(2′H)-one]	>5	>1	>1	>3	
>10	>10	>10	COc1cc(OC)c(F)c(N2Cc3cnc(-c4[nH]ncc4C#N)cc3C3(CC3)C2=O)c1F [Example 171, 5-(2′-(2,6-difluoro-3,5-dimethoxyphenyl)-3′-oxo-2′,3′-dihydro-1′H-spiro[cyclopropane-1,4′-[2,7]naphthyridine]-6′-yl)-1H-pyrazole-4-carbonitrile]					
>50	>25	>10	COc1cc(OC)c(F)c(N2Cc3cnc(-c4nn(C)cc4C#N)cc3C3(CC3)C2=O)c1F [Example 172, 3-(2′-(2,6-difluoro-3,5-dimethoxyphenyl)-3′-oxo-2′,3′-dihydro-1′H-spiro[cyclopropane-1,4′-[2,7]naphthyridine]-6′-yl)-1-methyl-1H-pyrazole-4-carbonitrile]					
>100	>100	>50	COc1cc(OC)c(F)c(N2Cc3cnc(-c4nn(CC5CCOCC5)cc4C#N)cc3C3(CC3)C2=O)c1F [Example 173, 3-(2′-(2,6-difluoro-3,5-dimethoxyphenyl)-3′-oxo-2′,3′-dihydro-1′H-spiro[cyclopropane-1,4′-[2,7]naphthyridine]-6′-yl)-1-((tetrahydro-2H-pyran-4-yl)methyl)-1H-pyrazole-4-carbonitrile]					
>100	>10	>25	COc1cc(OC)c(F)c(N2Cc3cnc(-c4nn(CC#N)cc4C#N)cc3C3(CC3)C2=O)c1F [Example 174, 1-(cyanomethyl)-3-(2′-(2,6-difluoro-3,5-dimethoxyphenyl)-3′-oxo-2′,3′-dihydro-1′H-spiro[cyclopropane-1,4′-[2,7]naphthyridine]-6′-yl)-1H-pyrazole-4-carbonitrile]					
